Test in all cases: relative viability (nuclei count vs DMSO), 5 days (fraction); higher = more cells survive
Compound in the assay “Afatinib + OSI-027”: CN(C)C/C=C/C(=O)Nc1cc2c(Nc3ccc(F)c(Cl)c3)ncnc2cc1O[C@H]1CCOC1 [Afatinib] + COc1cccc2cc(-c3nc([C@H]4CC[C@H](C(=O)O)CC4)n4ncnc(N)c34)[nH]c12 [OSI-027] (partner 0.5 µM)
Summed up: (§1)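 For relative viability, nuclei counts in treated wells were divided by those in vehicle wells. Lung cancer cell lines had been pin-tool dosed in 1536-well plates the day after seeding and cultured for 5 days, then fixed and stained in one step (final 0.05% Triton X-100, 1% formaldehyde, 1 ug/ml Hoechst) and imaged at 4×. Doses were one drug alone or a fixed anchor-drug dose plus five library-drug doses (not always all listed) in √10 steps, and values are duplicate-plate medians.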

Compound in the assay “Afatinib + Crizotinib”: CN(C)C/C=C/C(=O)Nc1cc2c(Nc3ccc(F)c(Cl)c3)ncnc2cc1O[C@H]1CCOC1 [Afatinib] + C[C@@H](Oc1cc(-c2cnn(C3CCNCC3)c2)cnc1N)c1c(Cl)ccc(F)c1Cl [Crizotinib] (partner 1 µM)
Summed up:
as §1

Compound in the assay “Afatinib + Linsitinib”: CN(C)C/C=C/C(=O)Nc1cc2c(Nc3ccc(F)c(Cl)c3)ncnc2cc1O[C@H]1CCOC1 [Afatinib] + C[C@]1(O)C[C@@H](c2nc(-c3ccc4ccc(-c5ccccc5)nc4c3)c3c(N)nccn32)C1 [Linsitinib] (partner 1 µM)
Summed up:
as §1

Compound in the assay “Afatinib + Tozasertib”: CN(C)C/C=C/C(=O)Nc1cc2c(Nc3ccc(F)c(Cl)c3)ncnc2cc1O[C@H]1CCOC1 [Afatinib] + Cc1cc(Nc2cc(N3CCN(C)CC3)nc(Sc3ccc(NC(=O)C4CC4)cc3)n2)n[nH]1 [Tozasertib] (partner 0.1 µM)
Summed up:
as §1

Consider LOU-NH91, for which the relative viability in the assay with Afatinib + OSI-027 (first compound 0.005 µM) was 0.491; in the assay with Afatinib + OSI-027 (first compound 0.01581 µM), 0.404; with Afatinib + OSI-027 (first compound 0.05 µM) it was 0.477; in the assay with Afatinib + OSI-027 (first compound 0.1581 µM), 0.4; with Afatinib + OSI-027 (first compound 0.5 µM) it was 0.518; in the assay with Afatinib + Crizotinib (first compound 0.005 µM), 0.523. Besides, the relative viability with Afatinib + Crizotinib (first compound 0.01581 µM) worked out at 0.574; with Afatinib + Crizotinib (first compound 0.05 µM), 0.69; with Afatinib + Crizotinib (first compound 0.1581 µM), 0.488; with Afatinib + Crizotinib (first compound 0.5 µM), 0.542; with Afatinib + Linsitinib (first compound 0.005 µM) it was 0.527; with Afatinib + Linsitinib (first compound 0.01581 µM) it was 0.551. Also, the relative viability amounted to 0.58 in the assay with Afatinib + Linsitinib (first compound 0.05 µM); 0.534 with Afatinib + Linsitinib (first compound 0.1581 µM); 0.591 with Afatinib + Linsitinib (first compound 0.5 µM); 0.475 in the assay with Afatinib + Tozasertib (first compound 0.005 µM); 0.444 with Afatinib + Tozasertib (first compound 0.01581 µM); 0.527 in the assay with Afatinib + Tozasertib (first compound 0.05 µM). The values for the relative viability with Afatinib + Tozasertib (first compound 0.1581 µM) and with Afatinib + Tozasertib (first compound 0.5 µM) were 0.51 and 0.479, respectively.
Take NCI-H2347: the relative viability with Afatinib + OSI-027 (first compound 0.005 µM) was 0.403; in the assay with Afatinib + OSI-027 (first compound 0.01581 µM), 0.46; with Afatinib + OSI-027 (first compound 0.05 µM), 0.393; in the assay with Afatinib + OSI-027 (first compound 0.1581 µM), 0.364; in the assay with Afatinib + OSI-027 (first compound 0.5 µM) it was 0.373; with Afatinib + Crizotinib (first compound 0.005 µM) it was 0.828. For the same cell line, the relative viability turned out to be 0.937 with Afatinib + Crizotinib (first compound 0.01581 µM); 0.657 in the assay with Afatinib + Crizotinib (first compound 0.05 µM); 0.607 with Afatinib + Crizotinib (first compound 0.1581 µM); 0.724 with Afatinib + Crizotinib (first compound 0.5 µM); 1.04 in the assay with Afatinib + Linsitinib (first compound 0.005 µM); 0.933 with Afatinib + Linsitinib (first compound 0.01581 µM). Further, the relative viability in the assay with Afatinib + Linsitinib (first compound 0.05 µM) is 1.03; with Afatinib + Linsitinib (first compound 0.1581 µM) it was 1.08; with Afatinib + Linsitinib (first compound 0.5 µM) it was 1.03; in the assay with Afatinib + Tozasertib (first compound 0.005 µM) it was 0.509; in the assay with Afatinib + Tozasertib (first compound 0.01581 µM), 0.593; with Afatinib + Tozasertib (first compound 0.05 µM) it was 0.596. The relative viability with Afatinib + Tozasertib (first compound 0.1581 µM) worked out at 0.484; with Afatinib + Tozasertib (first compound 0.5 µM), 0.603.
As to NCI-H2126, the relative viability with Afatinib + OSI-027 (first compound 0.005 µM) was determined as 0.732; in the assay with Afatinib + OSI-027 (first compound 0.01581 µM), 0.641; in the assay with Afatinib + OSI-027 (first compound 0.05 µM) it was 0.547; with Afatinib + OSI-027 (first compound 0.1581 µM) it was 0.494; in the assay with Afatinib + OSI-027 (first compound 0.5 µM), 0.415; in the assay with Afatinib + Crizotinib (first compound 0.005 µM), 1.09. Further, the relative viability worked out at 0.989 in the assay with Afatinib + Crizotinib (first compound 0.01581 µM); 1.02 with Afatinib + Crizotinib (first compound 0.05 µM); 0.884 with Afatinib + Crizotinib (first compound 0.1581 µM); 0.79 with Afatinib + Crizotinib (first compound 0.5 µM); 0.724 in the assay with Afatinib + Linsitinib (first compound 0.005 µM); 0.701 with Afatinib + Linsitinib (first compound 0.01581 µM). Further, the relative viability with Afatinib + Linsitinib (first compound 0.05 µM) amounted to 0.583; with Afatinib + Linsitinib (first compound 0.1581 µM), 0.465; in the assay with Afatinib + Linsitinib (first compound 0.5 µM) it was 0.424; with Afatinib + Tozasertib (first compound 0.005 µM), 0.852; with Afatinib + Tozasertib (first compound 0.01581 µM), 0.813; in the assay with Afatinib + Tozasertib (first compound 0.05 µM), 0.668. The relative viability with Afatinib + Tozasertib (first compound 0.1581 µM) is 0.571; with Afatinib + Tozasertib (first compound 0.5 µM), 0.632.
Consider HCC-827, for which the relative viability with Afatinib + OSI-027 (first compound 0.005 µM) came to 0.159; with Afatinib + OSI-027 (first compound 0.01581 µM) it was 0.122; with Afatinib + OSI-027 (first compound 0.05 µM) it was 0.153; in the assay with Afatinib + OSI-027 (first compound 0.1581 µM), 0.153; with Afatinib + OSI-027 (first compound 0.5 µM), 0.141; in the assay with Afatinib + Crizotinib (first compound 0.005 µM), 0.169. In addition, the relative viability is 0.176 with Afatinib + Crizotinib (first compound 0.01581 µM); 0.184 in the assay with Afatinib + Crizotinib (first compound 0.05 µM); 0.184 with Afatinib + Crizotinib (first compound 0.1581 µM); 0.21 with Afatinib + Crizotinib (first compound 0.5 µM); 0.202 in the assay with Afatinib + Linsitinib (first compound 0.005 µM); 0.163 in the assay with Afatinib + Linsitinib (first compound 0.01581 µM). Moreover, the relative viability turned out to be 0.18 with Afatinib + Linsitinib (first compound 0.05 µM); 0.172 with Afatinib + Linsitinib (first compound 0.1581 µM); 0.176 with Afatinib + Linsitinib (first compound 0.5 µM); 0.0972 in the assay with Afatinib + Tozasertib (first compound 0.005 µM); 0.11 in the assay with Afatinib + Tozasertib (first compound 0.01581 µM); 0.112 with Afatinib + Tozasertib (first compound 0.05 µM). The relative viability with Afatinib + Tozasertib (first compound 0.1581 µM) was found to be 0.131; with Afatinib + Tozasertib (first compound 0.5 µM), 0.112.
Take NCI-H3122: the relative viability with Afatinib + OSI-027 (first compound 0.005 µM) was determined as 1.03; with Afatinib + OSI-027 (first compound 0.01581 µM) it was 0.922; with Afatinib + OSI-027 (first compound 0.05 µM) it was 0.977; with Afatinib + OSI-027 (first compound 0.1581 µM), 0.951; with Afatinib + OSI-027 (first compound 0.5 µM), 0.881; in the assay with Afatinib + Crizotinib (first compound 0.005 µM), 0.257. Also, the relative viability with Afatinib + Crizotinib (first compound 0.01581 µM) amounted to 0.212; with Afatinib + Crizotinib (first compound 0.05 µM) it was 0.208; with Afatinib + Crizotinib (first compound 0.1581 µM), 0.209; with Afatinib + Crizotinib (first compound 0.5 µM), 0.299; in the assay with Afatinib + Linsitinib (first compound 0.005 µM) it was 1.02; in the assay with Afatinib + Linsitinib (first compound 0.01581 µM) it was 1.02. For the same cell line, the relative viability in the assay with Afatinib + Linsitinib (first compound 0.05 µM) was determined as 0.963; with Afatinib + Linsitinib (first compound 0.1581 µM), 0.822; with Afatinib + Linsitinib (first compound 0.5 µM), 1.08; with Afatinib + Tozasertib (first compound 0.005 µM), 0.452; with Afatinib + Tozasertib (first compound 0.01581 µM), 0.504; in the assay with Afatinib + Tozasertib (first compound 0.05 µM), 0.394. Besides, the relative viability with Afatinib + Tozasertib (first compound 0.1581 µM) came to 0.327; with Afatinib + Tozasertib (first compound 0.5 µM) it was 0.459.
Consider HOP-62, for which the relative viability with Afatinib + OSI-027 (first compound 0.005 µM) worked out at 0.947; with Afatinib + OSI-027 (first compound 0.01581 µM) it was 0.835; with Afatinib + OSI-027 (first compound 0.05 µM) it was 0.826; with Afatinib + OSI-027 (first compound 0.1581 µM) it was 0.933; with Afatinib + OSI-027 (first compound 0.5 µM), 0.827; in the assay with Afatinib + Crizotinib (first compound 0.005 µM), 1.04. In addition, the relative viability is 0.883 with Afatinib + Crizotinib (first compound 0.01581 µM); 1.11 with Afatinib + Crizotinib (first compound 0.05 µM); 1.05 with Afatinib + Crizotinib (first compound 0.1581 µM); 0.969 with Afatinib + Crizotinib (first compound 0.5 µM); 1.03 with Afatinib + Linsitinib (first compound 0.005 µM); 1.13 in the assay with Afatinib + Linsitinib (first compound 0.01581 µM). For the same cell line, the relative viability with Afatinib + Linsitinib (first compound 0.05 µM) was determined as 1.2; with Afatinib + Linsitinib (first compound 0.1581 µM) it was 1.03; with Afatinib + Linsitinib (first compound 0.5 µM), 1.04; with Afatinib + Tozasertib (first compound 0.005 µM) it was 0.43; with Afatinib + Tozasertib (first compound 0.01581 µM), 0.347; with Afatinib + Tozasertib (first compound 0.05 µM), 0.385. Further, the figures for the relative viability with Afatinib + Tozasertib (first compound 0.1581 µM) and in the assay with Afatinib + Tozasertib (first compound 0.5 µM) were 0.37 and 0.435, respectively.
HCC-44: the relative viability is 0.588 with Afatinib + OSI-027 (first compound 0.005 µM); 0.446 with Afatinib + OSI-027 (first compound 0.01581 µM); 0.521 in the assay with Afatinib + OSI-027 (first compound 0.05 µM); 0.542 in the assay with Afatinib + OSI-027 (first compound 0.1581 µM); 0.431 with Afatinib + OSI-027 (first compound 0.5 µM); 0.902 with Afatinib + Crizotinib (first compound 0.005 µM). Moreover, the relative viability with Afatinib + Crizotinib (first compound 0.01581 µM) was determined as 0.866; with Afatinib + Crizotinib (first compound 0.05 µM) it was 0.786; with Afatinib + Crizotinib (first compound 0.1581 µM), 0.782; in the assay with Afatinib + Crizotinib (first compound 0.5 µM) it was 0.847; with Afatinib + Linsitinib (first compound 0.005 µM) it was 0.63; with Afatinib + Linsitinib (first compound 0.01581 µM), 0.659. Moreover, the relative viability with Afatinib + Linsitinib (first compound 0.05 µM) amounted to 0.702; in the assay with Afatinib + Linsitinib (first compound 0.1581 µM), 0.593; with Afatinib + Linsitinib (first compound 0.5 µM), 0.669; with Afatinib + Tozasertib (first compound 0.005 µM), 1.18; with Afatinib + Tozasertib (first compound 0.01581 µM), 1.02; with Afatinib + Tozasertib (first compound 0.05 µM), 1. Further, the relative viability in the assay with Afatinib + Tozasertib (first compound 0.1581 µM) was 0.946; with Afatinib + Tozasertib (first compound 0.5 µM), 0.897.

For the origin of these results see the supplement of paper PMC10307832.
